Measurements from article PMC3254785 (2011).

Key:
[1] = molecular target: T1, soluble guanylyl cyclase (sGC) (Homo sapiens, UniProt Q02153); assay: anaerobic; format: binding
T1 sequence (Q02153 1-619): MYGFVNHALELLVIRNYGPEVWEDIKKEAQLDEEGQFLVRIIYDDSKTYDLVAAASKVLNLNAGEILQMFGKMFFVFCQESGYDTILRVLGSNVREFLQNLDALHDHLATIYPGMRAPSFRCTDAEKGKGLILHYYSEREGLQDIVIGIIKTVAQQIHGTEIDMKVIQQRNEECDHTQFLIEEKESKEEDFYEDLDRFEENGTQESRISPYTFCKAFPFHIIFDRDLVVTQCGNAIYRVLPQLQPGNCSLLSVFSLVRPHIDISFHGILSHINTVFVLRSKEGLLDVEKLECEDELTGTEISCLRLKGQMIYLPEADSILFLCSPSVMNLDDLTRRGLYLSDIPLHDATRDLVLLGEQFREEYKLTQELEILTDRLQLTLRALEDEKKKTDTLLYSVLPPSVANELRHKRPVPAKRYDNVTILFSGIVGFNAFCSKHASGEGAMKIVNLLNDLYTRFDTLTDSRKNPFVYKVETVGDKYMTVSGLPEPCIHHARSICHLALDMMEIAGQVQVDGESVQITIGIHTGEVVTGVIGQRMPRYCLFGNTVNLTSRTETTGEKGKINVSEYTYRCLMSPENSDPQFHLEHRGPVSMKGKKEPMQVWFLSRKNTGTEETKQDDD
T1 sequence (Q02108 1-690 partner): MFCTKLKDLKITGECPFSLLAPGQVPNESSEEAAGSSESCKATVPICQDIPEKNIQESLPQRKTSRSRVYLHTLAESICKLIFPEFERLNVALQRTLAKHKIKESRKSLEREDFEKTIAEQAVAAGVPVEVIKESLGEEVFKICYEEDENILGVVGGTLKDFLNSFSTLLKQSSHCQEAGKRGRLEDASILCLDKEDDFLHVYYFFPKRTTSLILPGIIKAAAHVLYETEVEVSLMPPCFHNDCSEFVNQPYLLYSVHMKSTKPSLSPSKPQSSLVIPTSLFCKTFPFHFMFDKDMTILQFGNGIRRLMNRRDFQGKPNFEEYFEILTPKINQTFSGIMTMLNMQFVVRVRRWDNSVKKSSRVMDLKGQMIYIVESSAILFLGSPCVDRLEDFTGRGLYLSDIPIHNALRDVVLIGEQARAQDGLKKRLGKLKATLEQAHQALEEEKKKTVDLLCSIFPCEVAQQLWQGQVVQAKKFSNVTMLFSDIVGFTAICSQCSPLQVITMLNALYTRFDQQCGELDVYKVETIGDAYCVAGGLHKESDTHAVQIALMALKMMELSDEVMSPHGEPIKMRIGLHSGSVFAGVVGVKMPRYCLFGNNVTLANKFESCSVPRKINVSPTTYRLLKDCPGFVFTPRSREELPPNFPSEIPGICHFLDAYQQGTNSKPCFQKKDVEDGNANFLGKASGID

Ns H-NOX = Ns H-NOX (Nostoc sp. PCC 7120 = FACHB-418, UniProt A0ACD6B960); assay: biochemical
Ns H-NOX, sequence (A0ACD6B960 1-189): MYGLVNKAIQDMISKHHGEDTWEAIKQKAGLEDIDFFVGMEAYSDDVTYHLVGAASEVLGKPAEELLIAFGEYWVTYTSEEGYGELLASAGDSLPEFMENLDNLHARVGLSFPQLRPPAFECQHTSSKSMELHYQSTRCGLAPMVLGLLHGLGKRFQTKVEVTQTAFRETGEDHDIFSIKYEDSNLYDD

| Kd (Ns H-NOX) | SMILES | Kd [1] |
| --- | --- | --- |
| – | [N]=O [NO] | 54 nM |
| 13 mM | O=O [O2] | – |
